Measurements as given in ChEMBL document CHEMBL1201862, “PubChem BioAssay data set” (2004).
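Grown in 96-well plates, cells were treated for 48 hours with each compound at five concentrations. Insufficient inhibition: endpoint recorded as highest concentration tested. At the GI50, growth is halved.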 Active and inactive are the calls of the source. No stated cut-off is given here; in the data, active = GI50 up to about 1.1 µM and inactive = higher.

How the values were obtained:
Assay in all cases: NCI-60 cell line screen, 48 h
ACHN = tested on: ACHN
COLO 205 = tested on: COLO 205
HCT-116 = tested on: HCT-116
K562 = tested on: K562
MCF7 = tested on: MCF7
NCI-H23 = tested on: NCI-H23
NCI-H460 = tested on: NCI-H460
OVCAR-3 = tested on: OVCAR-3
OVCAR-4 = tested on: OVCAR-4
OVCAR-8 = tested on: OVCAR-8
RXF 393 = tested on: RXF 393
SF-268 = tested on: SF-268
SK-MEL-28 = tested on: SK-MEL-28
SK-MEL-5 = tested on: SK-MEL-5
SK-OV-3 = tested on: SK-OV-3
SNB-19 = tested on: SNB-19
UACC-62 = tested on: UACC-62
UO-31 = tested on: UO-31
SF-539 = tested on: SF-539

Row | SMILES | GI50 (ACHN) | GI50 (COLO 205) | GI50 (HCT-116) | GI50 (K562) | GI50 (MCF7) | GI50 (NCI-H23) | GI50 (NCI-H460) | GI50 (OVCAR-3) | GI50 (OVCAR-4) | GI50 (OVCAR-8) | GI50 (RXF 393) | GI50 (SF-268) | GI50 (SK-MEL-28) | GI50 (SK-MEL-5) | GI50 (SK-OV-3) | GI50 (SNB-19) | GI50 (UACC-62) | GI50 (UO-31) | GI50 (SF-539)
1 | O=CC1OC(=O)c2cc(O)c(O)c(O)c2-c2c(cc(O)c(O)c2O)C(=O)OC1C1OC(=O)c2cc(O)c(O)c(O)c2-c2c(O)c(O)c3oc(=O)c4c(c(O)c(O)c5oc(=O)c2c3c54)-c2c(cc(O)c(O)c2O)C(=O)OCC1O (stereo not drawn) | 35.2 µM (inactive) | 26 µM (inactive) | 16.9 µM (inactive) | 26.7 µM (inactive) | 19.6 µM (inactive) | 30.8 µM (inactive) | 20.7 µM (inactive) | 39.7 µM (inactive) | 14.2 µM (inactive) | 19.3 µM (inactive) | 57 µM (inactive) | 56.9 µM (inactive) | > 100 µM (inactive) | 18.2 µM (inactive) | 50.6 µM (inactive) | 72.3 µM (inactive) | 29.4 µM (inactive) | 23.4 µM (inactive) | 
2 | O=C1CCCC2=C1CC1=C(CCCC1=O)N2c1cccc([N+](=O)[O-])c1 | > 100 µM (inactive) |  |  | > 100 µM (inactive) | 64 µM (inactive) | > 100 µM (inactive) | > 100 µM (inactive) | > 100 µM (inactive) | > 100 µM (inactive) | > 100 µM (inactive) | 67.9 µM (inactive) | > 100 µM (inactive) | > 100 µM (inactive) | > 100 µM (inactive) | > 100 µM (inactive) | > 100 µM (inactive) | > 100 µM (inactive) | > 100 µM (inactive) | > 100 µM (inactive)
3 | O=C1c2ccccc2C(=O)C2NC(CCCCCSSCCCCCC3=NC4C(=O)c5ccccc5C(=O)C4N3)=NC12 (stereo not drawn) | 10.4 µM (inactive) |  | 14.8 µM (inactive) | > 100 µM (inactive) | > 100 µM (inactive) | 40.2 µM (inactive) | > 100 µM (inactive) | > 100 µM (inactive) | > 100 µM (inactive) | 45.2 µM (inactive) | 22.3 µM (inactive) | 27.3 µM (inactive) | > 100 µM (inactive) | 19.9 µM (inactive) | 50.8 µM (inactive) |  |  | 7.74 µM (inactive) | 24.3 µM (inactive)
4 | Oc1cccc2c1[nH]c1c(C3=C[C@@]4(O)CC/C=C\CCCCN5CC[C@@H]3[C@]3(CC6/C=C\CCCCN6[C@H]34)C5)nccc12 (stereo partly drawn) | 1.1 µM (active) | 0.787 µM (active) | 1.38 µM (inactive) | 0.607 µM (active) | 0.7 µM (active) | 0.912 µM (active) | 0.65 µM (active) | 0.893 µM (active) | 0.679 µM (active) | 1.15 µM (inactive) |  | 1.58 µM (inactive) | 1.66 µM (inactive) | 1.59 µM (inactive) | 1.94 µM (inactive) | 2.69 µM (inactive) | 1.47 µM (inactive) | 1.44 µM (inactive) | 1.71 µM (inactive)
5 | CCC(CN(C)C)C(=O)c1ccco1 (stereo not drawn) | > 100 µM (inactive) |  | > 100 µM (inactive) | > 100 µM (inactive) | 47.9 µM (inactive) | > 100 µM (inactive) | > 100 µM (inactive) | > 100 µM (inactive) | > 100 µM (inactive) | > 100 µM (inactive) | > 100 µM (inactive) | 54.8 µM (inactive) | > 100 µM (inactive) |  | > 100 µM (inactive) | > 100 µM (inactive) | > 100 µM (inactive) | > 100 µM (inactive) | 
6 | COc1ccc2c(c1)-c1[nH]c3ccc(OC)cc3c1CC2 | 19.6 µM (inactive) | 18 µM (inactive) | 17.1 µM (inactive) | 8.99 µM (inactive) | 24.9 µM (inactive) | 12.9 µM (inactive) | 16.3 µM (inactive) | 17.6 µM (inactive) | 14.9 µM (inactive) | 13.9 µM (inactive) |  | 14.1 µM (inactive) | 16.4 µM (inactive) | 13.1 µM (inactive) | 18.6 µM (inactive) | 14.8 µM (inactive) | 15.1 µM (inactive) | 15.2 µM (inactive) | 18.2 µM (inactive)
7 | O=C(O)CC(Sc1ccccc1)c1ccccc1 (stereo not drawn) | > 100 µM (inactive) | > 100 µM (inactive) | > 100 µM (inactive) | > 100 µM (inactive) | > 100 µM (inactive) | > 100 µM (inactive) |  | > 100 µM (inactive) | > 100 µM (inactive) | > 100 µM (inactive) | > 100 µM (inactive) | > 100 µM (inactive) | > 100 µM (inactive) | > 100 µM (inactive) | > 100 µM (inactive) | > 100 µM (inactive) | > 100 µM (inactive) | > 100 µM (inactive) | 
8 | CN(Cc1cnc2nc(N)nc(N)c2n1)c1ccc(C(=O)NCCCS(=O)(=O)O)cc1 | > 100 µM (inactive) | > 100 µM (inactive) | 83.9 µM (inactive) | > 100 µM (inactive) | > 100 µM (inactive) | > 100 µM (inactive) | > 100 µM (inactive) | > 100 µM (inactive) | > 100 µM (inactive) | > 100 µM (inactive) |  | > 100 µM (inactive) | > 100 µM (inactive) | > 100 µM (inactive) | > 100 µM (inactive) | > 100 µM (inactive) | > 100 µM (inactive) | > 100 µM (inactive) | > 100 µM (inactive)
